Our source for the inhibition values is publication PMC7180948, “New Insights into 4-Anilinoquinazolines as Inhibitors of Cardiac Troponin I–Interacting Kinase (TNNi3K)” (Molecules, 2020).

For orientation: inhibition means how much of the control response was suppressed.

Holding throughout (assay): biochemical
What all share (set-up): KINOMEscan competition binding panel (Eurofins DiscoverX), single concentration, % inhibition
Holding throughout (conditions): read-out: 7 at 1 µM % inhibition

In assay [1] the target is HIPK3 (Homo sapiens, UniProt Q9H422). The method in brief:
(§1)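 A single 1 µM concentration of each compound is screened across upwards of 400 human kinases using the KINOMEscan format.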

Assay [2] has as its target T1, TIE2 (Homo sapiens, UniProt Q02763).
T1 construct: gene TEK
The method in brief:
as §1

Assay [3] has as its target ROS1 (Homo sapiens, UniProt P08922). Summed up: as §1
Assay [4] addresses MAP3K2 (Homo sapiens, UniProt Q9Y2U5). Summed up: as §1
Assay [5] has as its target EPHA3 (Homo sapiens, UniProt P29320). The method in brief: as §1
For assay [6], the target named is FGFR3 (Homo sapiens, UniProt P22607). The method in brief: as §1
In assay [7] the target is T2, MLK1 (Homo sapiens, UniProt P80192).
T2 construct: gene MAP3K9
Summed up:
as §1

For assay [8], the target named is KIT-autoinhibited (Homo sapiens, UniProt P10721). Summed up:
as §1

For assay [9], the target named is T3, ABL1(T315I)-nonphosphorylated (Homo sapiens, UniProt P00519, T315I).
T3 construct: nonphosphorylated
Summed up: as §1

In assay [10] the target is BMPR2 (Homo sapiens, UniProt Q13873). The method in brief: as §1
The target of assay [11] is HIPK1 (Homo sapiens, UniProt Q86Z02). The method in brief: as §1
Assay [12] deals with PIK3CA(M1043I) (Homo sapiens, UniProt P42336, M1043I). Summed up:
as §1

The target of assay [13] is T4, IKK-epsilon (Homo sapiens, UniProt Q14164).
T4 construct: gene IKBKE
Summed up: as §1

Assay [14] concerns the target NEK5 (Homo sapiens, UniProt Q6P3R8). The method in brief: as §1
The target in assay [15] is LIMK1 (Homo sapiens, UniProt P53667). The method in brief: as §1
In assay [16] the target is ACVRL1 (Homo sapiens, UniProt P37023). Summed up:
as §1

Assay [17] has as its target T5, ABL1(Y253F)-phosphorylated (Homo sapiens, UniProt P00519, Y253F).
T5 construct: phosphorylated
The method in brief:
as §1

In assay [18] the target is T6, MKK7 (Homo sapiens, UniProt O14733).
T6 construct: gene MAP2K7
The method in brief:
as §1

Assay [19] addresses T7, ASK2 (Homo sapiens, UniProt O95382).
T7 construct: gene MAP3K6
The method in brief: as §1

For assay [20], the target named is MAP3K15 (Homo sapiens, UniProt Q6ZN16). The method in brief:
as §1

The target in assay [21] is T8, CDK11 (Homo sapiens, UniProt Q9BWU1).
T8 construct: gene CDK19
Summed up:
as §1

The target of assay [22] is T9, ERK3 (Homo sapiens, UniProt Q16659).
T9 construct: gene MAPK6
Summed up:
as §1

The target of assay [23] is FGR (Homo sapiens, UniProt P09769). The method in brief: as §1
For assay [24], the target named is RET (Homo sapiens, UniProt P07949). Summed up: as §1

Sequence of FGR (P09769 whole entry): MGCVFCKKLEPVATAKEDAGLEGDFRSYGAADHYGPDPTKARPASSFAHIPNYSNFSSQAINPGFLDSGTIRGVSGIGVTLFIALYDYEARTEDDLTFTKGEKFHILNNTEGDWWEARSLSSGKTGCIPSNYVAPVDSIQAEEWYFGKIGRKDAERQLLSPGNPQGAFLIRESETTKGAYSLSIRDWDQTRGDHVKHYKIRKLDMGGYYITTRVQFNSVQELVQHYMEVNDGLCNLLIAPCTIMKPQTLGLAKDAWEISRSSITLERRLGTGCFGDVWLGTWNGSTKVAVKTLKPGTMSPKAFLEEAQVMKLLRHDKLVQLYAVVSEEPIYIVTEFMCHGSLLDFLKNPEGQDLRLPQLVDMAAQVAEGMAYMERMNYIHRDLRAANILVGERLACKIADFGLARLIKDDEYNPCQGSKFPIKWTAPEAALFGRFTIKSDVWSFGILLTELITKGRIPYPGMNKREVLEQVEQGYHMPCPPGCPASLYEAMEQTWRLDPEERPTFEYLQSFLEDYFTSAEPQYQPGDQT
T4 sequence (Q14164 whole entry): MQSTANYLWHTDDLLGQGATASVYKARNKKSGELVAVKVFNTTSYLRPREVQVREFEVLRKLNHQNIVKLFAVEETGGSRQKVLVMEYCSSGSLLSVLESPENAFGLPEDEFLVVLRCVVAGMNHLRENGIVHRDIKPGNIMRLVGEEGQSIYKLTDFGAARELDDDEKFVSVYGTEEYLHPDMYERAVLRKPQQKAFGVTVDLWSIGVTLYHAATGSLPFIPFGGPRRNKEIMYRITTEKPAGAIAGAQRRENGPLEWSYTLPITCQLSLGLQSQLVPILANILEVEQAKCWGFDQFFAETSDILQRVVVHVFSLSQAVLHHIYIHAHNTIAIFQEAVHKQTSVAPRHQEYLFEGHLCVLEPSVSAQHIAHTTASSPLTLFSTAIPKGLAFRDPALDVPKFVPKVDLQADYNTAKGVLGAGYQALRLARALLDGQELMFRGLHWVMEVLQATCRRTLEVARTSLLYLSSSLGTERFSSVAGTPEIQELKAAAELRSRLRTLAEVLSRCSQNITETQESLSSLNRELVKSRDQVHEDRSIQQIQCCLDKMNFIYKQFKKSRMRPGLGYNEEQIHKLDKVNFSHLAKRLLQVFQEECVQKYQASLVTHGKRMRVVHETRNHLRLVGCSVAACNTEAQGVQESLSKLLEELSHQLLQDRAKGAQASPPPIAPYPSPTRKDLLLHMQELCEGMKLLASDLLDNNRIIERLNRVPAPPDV
T9 sequence (Q16659 whole entry): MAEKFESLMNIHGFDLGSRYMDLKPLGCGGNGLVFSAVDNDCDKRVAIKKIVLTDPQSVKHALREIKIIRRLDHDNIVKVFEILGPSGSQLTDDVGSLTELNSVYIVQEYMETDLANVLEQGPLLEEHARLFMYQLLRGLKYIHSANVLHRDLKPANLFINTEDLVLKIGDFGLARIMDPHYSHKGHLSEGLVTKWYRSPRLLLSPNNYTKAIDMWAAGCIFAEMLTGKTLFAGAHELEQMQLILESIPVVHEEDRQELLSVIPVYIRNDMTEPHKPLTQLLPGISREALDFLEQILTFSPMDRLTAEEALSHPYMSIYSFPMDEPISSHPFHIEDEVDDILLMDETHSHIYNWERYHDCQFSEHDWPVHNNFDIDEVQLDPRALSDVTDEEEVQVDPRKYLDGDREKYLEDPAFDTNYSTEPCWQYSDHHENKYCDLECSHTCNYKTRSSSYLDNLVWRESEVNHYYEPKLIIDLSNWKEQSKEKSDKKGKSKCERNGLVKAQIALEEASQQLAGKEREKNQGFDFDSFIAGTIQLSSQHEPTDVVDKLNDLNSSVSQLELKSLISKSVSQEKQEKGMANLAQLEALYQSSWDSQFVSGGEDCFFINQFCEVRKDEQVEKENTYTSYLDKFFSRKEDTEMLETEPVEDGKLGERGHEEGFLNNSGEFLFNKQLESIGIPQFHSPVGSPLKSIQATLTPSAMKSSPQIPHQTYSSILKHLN
Sequence of MAP3K2 (Q9Y2U5 whole entry): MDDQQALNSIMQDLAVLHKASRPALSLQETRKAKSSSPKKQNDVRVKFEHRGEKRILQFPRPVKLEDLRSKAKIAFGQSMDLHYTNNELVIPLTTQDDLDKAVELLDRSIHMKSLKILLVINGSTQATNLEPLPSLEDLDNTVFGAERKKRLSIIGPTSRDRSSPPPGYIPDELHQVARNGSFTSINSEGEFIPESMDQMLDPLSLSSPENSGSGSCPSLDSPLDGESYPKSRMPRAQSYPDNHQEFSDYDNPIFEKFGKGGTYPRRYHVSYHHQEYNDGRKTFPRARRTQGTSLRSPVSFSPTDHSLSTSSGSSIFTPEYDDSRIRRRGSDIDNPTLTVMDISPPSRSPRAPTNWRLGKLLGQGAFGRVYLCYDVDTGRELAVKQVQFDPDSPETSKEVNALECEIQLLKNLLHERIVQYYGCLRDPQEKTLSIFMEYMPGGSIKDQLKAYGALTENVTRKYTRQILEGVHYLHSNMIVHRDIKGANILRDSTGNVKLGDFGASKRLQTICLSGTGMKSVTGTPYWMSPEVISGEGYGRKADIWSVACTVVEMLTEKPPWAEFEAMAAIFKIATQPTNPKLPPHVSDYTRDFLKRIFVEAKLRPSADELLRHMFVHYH
Sequence of LIMK1 (P53667 whole entry): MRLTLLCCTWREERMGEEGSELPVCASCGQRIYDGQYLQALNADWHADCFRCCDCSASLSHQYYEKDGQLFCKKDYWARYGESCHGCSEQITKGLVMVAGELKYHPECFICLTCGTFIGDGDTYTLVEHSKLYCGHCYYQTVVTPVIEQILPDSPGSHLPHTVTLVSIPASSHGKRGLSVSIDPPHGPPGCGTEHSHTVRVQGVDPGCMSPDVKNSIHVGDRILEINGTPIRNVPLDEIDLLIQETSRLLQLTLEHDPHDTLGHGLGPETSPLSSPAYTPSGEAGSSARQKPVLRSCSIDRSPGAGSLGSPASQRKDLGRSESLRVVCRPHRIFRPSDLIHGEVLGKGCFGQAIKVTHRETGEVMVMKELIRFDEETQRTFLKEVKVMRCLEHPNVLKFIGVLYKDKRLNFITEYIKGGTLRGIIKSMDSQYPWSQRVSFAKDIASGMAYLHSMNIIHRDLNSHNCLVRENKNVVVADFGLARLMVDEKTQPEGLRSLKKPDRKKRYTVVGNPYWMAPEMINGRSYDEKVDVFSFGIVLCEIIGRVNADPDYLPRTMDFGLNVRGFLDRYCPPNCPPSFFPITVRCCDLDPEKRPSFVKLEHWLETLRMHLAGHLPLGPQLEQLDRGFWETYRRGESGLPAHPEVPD
Sequence of KIT-autoinhibited (P10721 whole entry): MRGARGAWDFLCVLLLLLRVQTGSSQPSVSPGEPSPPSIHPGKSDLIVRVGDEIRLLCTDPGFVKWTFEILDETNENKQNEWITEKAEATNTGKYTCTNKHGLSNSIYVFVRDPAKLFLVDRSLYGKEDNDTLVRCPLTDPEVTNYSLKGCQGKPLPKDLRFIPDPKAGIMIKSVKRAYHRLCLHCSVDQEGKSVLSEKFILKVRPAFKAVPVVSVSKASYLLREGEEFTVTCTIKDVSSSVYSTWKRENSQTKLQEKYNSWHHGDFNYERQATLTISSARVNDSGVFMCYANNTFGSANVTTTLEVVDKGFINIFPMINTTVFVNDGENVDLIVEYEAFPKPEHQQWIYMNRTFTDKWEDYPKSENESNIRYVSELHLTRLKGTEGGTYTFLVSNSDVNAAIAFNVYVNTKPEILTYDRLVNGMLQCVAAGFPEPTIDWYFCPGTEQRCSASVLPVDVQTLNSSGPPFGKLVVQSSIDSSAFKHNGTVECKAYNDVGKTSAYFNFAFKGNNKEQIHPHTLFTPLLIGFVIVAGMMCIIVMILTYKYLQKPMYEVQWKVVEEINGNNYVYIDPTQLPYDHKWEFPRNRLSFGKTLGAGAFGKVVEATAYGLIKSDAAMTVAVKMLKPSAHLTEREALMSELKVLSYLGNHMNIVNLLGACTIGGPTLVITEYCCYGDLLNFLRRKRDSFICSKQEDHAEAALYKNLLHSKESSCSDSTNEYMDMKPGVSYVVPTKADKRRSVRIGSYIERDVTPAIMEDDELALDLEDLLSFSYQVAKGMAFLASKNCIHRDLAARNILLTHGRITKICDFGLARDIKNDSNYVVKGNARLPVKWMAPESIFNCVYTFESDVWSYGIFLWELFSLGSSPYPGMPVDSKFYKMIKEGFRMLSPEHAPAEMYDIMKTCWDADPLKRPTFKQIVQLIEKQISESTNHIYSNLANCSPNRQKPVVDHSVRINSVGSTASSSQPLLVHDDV
T6 sequence (O14733 whole entry): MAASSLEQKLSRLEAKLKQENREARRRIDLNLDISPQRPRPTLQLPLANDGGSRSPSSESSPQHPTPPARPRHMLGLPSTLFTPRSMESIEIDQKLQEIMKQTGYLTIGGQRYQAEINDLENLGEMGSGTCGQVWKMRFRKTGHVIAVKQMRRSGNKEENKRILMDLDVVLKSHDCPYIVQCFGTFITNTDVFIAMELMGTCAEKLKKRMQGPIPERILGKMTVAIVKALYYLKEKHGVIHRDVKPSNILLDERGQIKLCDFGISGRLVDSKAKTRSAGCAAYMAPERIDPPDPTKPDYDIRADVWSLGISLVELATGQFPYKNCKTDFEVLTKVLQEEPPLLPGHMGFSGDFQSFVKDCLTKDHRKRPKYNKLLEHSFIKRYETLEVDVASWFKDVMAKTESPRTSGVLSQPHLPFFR

Turning to `CNS(=O)(=O)c1ccc(N(C)C)c(Nc2ncnc3cc(OC)c(OC)cc23)c1` [compound 7, 3-((6,7-dimethoxyquinazolin-4-yl)amino)-4-(dimethylamino)-N-methylbenzenesulfonamide], the inhibition at 1 µM is 0% in assay [1]; 0% in assay [2]; 0% in [3]; 12% in [4]; 5% in assay [5]; 0% in assay [6]. Moreover, the inhibition at 1 µM in [7] is 10%; in assay [8], 22%; in [9] it was 33%; in [10] it was 0%; in assay [11], 5%; in [12], 29%. Moreover, the inhibition at 1 µM in [13] turned out to be 18%; in assay [14], 25%; in assay [15], 0%; in assay [16], 0%; in assay [17] it was 38%; in [18] it was 42%. The inhibition at 1 µM was 30% in [19]; 4% in assay [20]; 0% in assay [21]; 0% in [22]; 0% in assay [23]; 11% in assay [24].
